Patent publication US9315527B2, “Synthesis and applications of peripherally asymmetric aryl POSS compounds” (The United States of America as Represented by the …, priority 2011, dated 2016)
Values after ≈ are worked out from the molar mass of the structure shown.

How the values were obtained:
[1] = Solubility of aromatic POSS compounds in organic solvents by visual measurements; format: physicochemical; conditions: visual measurement; for Solubility in CHCl3: chloroform; for Solubility in PE: phenyl ether; for Solubility in Tol: toluene; for Solubility in DMF: dimethyl formamide; for Solubility in THF: tetrahydrofuran
Procedure: The influence of the prescribed peripheral asymmetry of these compounds on solubility was determined by visual measurements in five organic solvents, including chloroform (CHCl3), tetrahydrofuran (THF), phenyl ether (PE), toluene (Tol), and dimethyl formamide (DMF), summarized in Table 1.
The substitution of a single polycyclic aromatic ring on the POSS cage improves solubility substantially in most cases. However, it is difficult to predict the influence of each aromatic group on the observed solubility, as well as in which solvent the solubility will be affected. Modification with a 1-naphthyl group to produce (1-naphthyl)-phenyl7Si8O12 (3) results in solubility in CHCl3 and THF exceeding 100 mg/mL and the observance of more finite solubility in the other investigated solvents. Modification with a 2-naphthyl group to produce (2-naphthyl)phenyl7Si8O12 (4) increases solubility in PE and DMF, but reduces solubility in THF and CHCl3, when compared to (1-naphthyl)-phenyl7Si8O12 (3).

[2] = Phase behavior of POSS in polyetherimide (Ultem 1000, PEI): chloroform solutions and drop cast annealed films; format: physicochemical; conditions: for Appearance of chloroform solution containing PEI and POSS: 5 weight percent PEI in chloroform, POSS 5 weight percent with respect to PEI
Procedure: To examine the phase behavior of this new class of peripherally-asymmetric POSS nanoparticles with a representative aromatic polymer, attempts were made to solubilize both phenyl8Si8O12 and (1-naphthyl)phenyl7Si8O12 in polyetherimide (Ultem 1000, PEI). Chloroform solutions were prepared at a solute concentration of 5 weight percent PEI and POSS concentration of 5 weight percent with respect to PEI. Subsequent films from these solutions were drop cast onto glass substrates, dried under vacuum, and annealed at 220° C., above the glass transition temperature of PEI, to promote equilibrium phase formation.
Qualitatively, the dried and annealed films were visually observed to be of contrasting appearance.

[3] = chloroform, benchmark; cited from earlier work

Row | Compound | Solubility in CHCl3 [1] [mg/mL] | Solubility in PE [1] | Solubility in Tol [1] | Appearance of chloroform solution containing PEI and POSS [2] | Visual appearance of dried and annealed PEI film ([2]; drop cast film, annealed at 220° C.) | Length scale of aggregated particles in PEI film ([2]; drop cast film, annealed at 220° C., microscopy, some regions) | Solubility in DMF [1] [mg/mL] | Phase separation length scale in PEI film ([2]; drop cast film, annealed at 220° C., microscopy) | Solubility in THF [1] [mg/mL] | Solubility in CHCl3 (previously documented) [3]
1 | c1ccc([Si]23O[Si]4(c5ccccc5)O[Si]5(c6ccccc6)O[Si](c6ccccc6)(O2)O[Si]2(c6ccccc6)O[Si](c6ccccc6)(O3)O[Si](c3ccccc3)(O4)O[Si](c3ccccc3)(O5)O2)cc1 [Compound 2, phenyl8Si8O12] | 1 (≈ 968 µM) | ^a (Insoluble.) | ^a (Insoluble.) | cloudy | significantly more opaque | greater than 1 mm | – | – | – | about 1 mg/mL
2 | (1-naphthyl)-phenyl7Si8O12 [Compound 3] | – | 15 mg/mL | ^a (Insoluble.) | transparent | – | – | 24 | less than 5 microns | – | –
3 | (2-naphthyl)phenyl7Si8O12 [Compound 4] | 55 | 53 mg/mL | ^a (Insoluble.) | – | – | – | 35 | – | 28 | –

The next lines start with results.

Row | Solubility in CHCl3 [1] [mg/mL] | Solubility in PE [1] | Solubility in Tol [1] | Appearance of chloroform solution containing PEI and POSS [2] | Visual appearance of dried and annealed PEI film ([2]; drop cast film, annealed at 220° C.) | Length scale of aggregated particles in PEI film ([2]; drop cast film, annealed at 220° C., microscopy, some regions) | Solubility in DMF [1] [mg/mL] | Phase separation length scale in PEI film ([2]; drop cast film, annealed at 220° C., microscopy) | Solubility in THF [1] [mg/mL] | Compound | Solubility in CHCl3 (previously documented) [3]
4 | 7 | 4 mg/mL | 5 mg/mL | – | – | – | 5 | – | 10 | (1-pyrenyl)phenyl7Si8O12 [Compound 6] | –
5 | 52 | 25 mg/mL | 27 mg/mL | – | – | – | 57 | – | 117 | (9-phenanthrenyl)-phenyl7Si8O12 [Compound 5] | –
